Data reported in BindingDB's records for doi:10.1016/j.bmcl.2019.04.027 (Gilead Sciences, 2019).

Key:
[1] = Inhibition of NS5A in HCV genotype 2b MD2b-1 infected in human HuH7 replicon cells assessed as reduction in viral replication after 3 days by luciferase reporter gene assay
[2] = Inhibition of NS5A L31M mutant in HCV genotype 1a infected in human HuH7 replicon cells assessed as reduction in viral replication after 3 days by luciferase reporter gene assay
[3] = Inhibition of NS5A Q30H mutant in HCV genotype 1a infected in human HuH7 replicon cells assessed as reduction in viral replication after 3 days by luciferase reporter gene assay
[4] = Inhibition of NS5A in wild type HCV genotype 1a infected in human HuH7 replicon cells assessed as reduction in viral replication after 3 days by luciferase reporter gene assay
[5] = Inhibition of NS5A in wild type HCV genotype 1b infected in human HuH7 replicon cells assessed as reduction in viral replication after 3 days by luciferase reporter gene assay
[6] = Inhibition of NS5A Y93H mutant in HCV genotype 1a infected in human HuH7 replicon cells assessed as reduction in viral replication after 3 days by luciferase reporter gene assay
[7] = Inhibition of NS5A in HCV genotype 1b Con1 infected in human HuH7 replicon cells assessed as reduction in viral replication after 3 days by luciferase reporter gene assay
[8] = Inhibition of NS5A in HCV genotype 3a S52 infected in human HuH7 transient chimeric replicon cells assessed as reduction in viral replication after 3 days by luciferase reporter gene assay
[9] = Inhibition of NS5A L31M mutant in HCV genotype 2a JFH1 (M31) infected in human HuH7 replicon cells assessed as reduction in viral replication after 3 days by luciferase reporter gene assay
[10] = Inhibition of NS5A Y93H mutant in HCV genotype 1b infected in human HuH7 replicon cells assessed as reduction in viral replication after 3 days by luciferase reporter gene assay
[11] = Inhibition of NS5A M28T mutant in HCV genotype 1a infected in human HuH7 replicon cells assessed as reduction in viral replication after 3 days by luciferase reporter gene assay
[12] = Inhibition of NS5A Q30R mutant in HCV genotype 1a infected in human HuH7 replicon cells assessed as reduction in viral replication after 3 days by luciferase reporter gene assay
[13] = Inhibition of NS5A L31M mutant in HCV genotype 2a J6 (M31) infected in human HuH7 replicon cells assessed as reduction in viral replication after 3 days by luciferase reporter gene assay
[14] = Inhibition of NS5A in HCV genotype 4a ED43 infected in human HuH7 transient chimeric replicon cells assessed as reduction in viral replication after 3 days by luciferase reporter gene assay
[15] = Inhibition of NS5A Y93C mutant in HCV genotype 1a infected in human HuH7 replicon cells assessed as reduction in viral replication after 3 days by luciferase reporter gene assay
[16] = Inhibition of NS5A in HCV genotype 1a H77 infected in human HuH7 replicon cells assessed as reduction in viral replication after 3 days by luciferase reporter gene assay
[17] = Inhibition of NS5A Q30E mutant in HCV genotype 1a infected in human HuH7 replicon cells assessed as reduction in viral replication after 3 days by luciferase reporter gene assay
[18] = Inhibition of NS5A in HCV genotype 6a HK6 infected in human HuH7 replicon cells assessed as reduction in viral replication after 3 days by luciferase reporter gene assay
[19] = Inhibition of NS5A K44R mutant in HCV genotype 2a infected in human HuH7 replicon cells assessed as reduction in viral replication after 3 days by luciferase reporter gene assay
[20] = Inhibition of NS5A in wild type HCV genotype 2b AY232738 infected in human HuH7 replicon cells assessed as reduction in viral replication after 3 days by luciferase reporter gene assay
[21] = Inhibition of NS5A Y93H mutant in HCV genotype 3a infected in human HuH7 replicon cells assessed as reduction in viral replication after 3 days by luciferase reporter gene assay
[22] = Inhibition of NS5A in HCV genotype 5a SA13 infected in human HuH7 replicon cells assessed as reduction in viral replication after 3 days by luciferase reporter gene assay
[23] = Inhibition of NS5A in HCV wild type genotype 2a infected in human HuH7 replicon cells assessed as reduction in viral replication after 3 days by luciferase reporter gene assay
[24] = Inhibition of NS5A in wild type HCV genotype 3a infected in human HuH7 replicon cells assessed as reduction in viral replication after 3 days by luciferase reporter gene assay
[25] = Inhibition of NS5A in HCV genotype 3a S52 infected in human HuH7 replicon cells assessed as reduction in viral replication after 3 days by luciferase reporter gene assay
[26] = Inhibition of NS5A in HCV genotype 4a ED43 infected in human HuH7 replicon cells assessed as reduction in viral replication after 3 days by luciferase reporter gene assay
[27] = Inhibition of NS5A N62S mutant in HCV genotype 2a infected in human HuH7 replicon cells assessed as reduction in viral replication after 3 days by luciferase reporter gene assay
[28] = Inhibition of NS5A in HCV genotype 6e D88 infected in human HuH7 replicon cells assessed as reduction in viral replication after 3 days by luciferase reporter gene assay
[29] = Inhibition of NS5A A30K mutant in HCV genotype 3a infected in human HuH7 replicon cells assessed as reduction in viral replication after 3 days by luciferase reporter gene assay
[30] = Inhibition of NS5A R44K mutant in HCV genotype 2b infected in human HuH7 replicon cells assessed as reduction in viral replication after 3 days by luciferase reporter gene assay
[31] = Inhibition of NS5A in HCV genotype 2a J6 infected in human HuH7 replicon cells assessed as reduction in viral replication after 3 days by luciferase reporter gene assay
[32] = Inhibition of NS5A P58S mutant in HCV genotype 2b infected in human HuH7 replicon cells assessed as reduction in viral replication after 3 days by luciferase reporter gene assay
[33] = Inhibition of NS5A N62V mutant in HCV genotype 2a infected in human HuH7 replicon cells assessed as reduction in viral replication after 3 days by luciferase reporter gene assay
[34] = Inhibition of NS5A in HCV genotype 2a JFH1 infected in human HuH7 replicon cells assessed as reduction in viral replication after 3 days by luciferase reporter gene assay
[35] = Inhibition of NS5A in wild type HCV genotype 2b MD2b-1 infected in human HuH7 replicon cells assessed as reduction in viral replication after 3 days by luciferase reporter gene assay

Row | SMILES | EC50 [1] [nM] | EC50 [2] [nM] | EC50 [3] [nM] | EC50 [4] [nM] | EC50 [5] [nM] | EC50 [6] [nM] | EC50 [7] [nM] | EC50 [10] [nM] | EC50 [11] [nM] | EC50 [12] [nM] | EC50 [13] [nM] | EC50 [15] [nM] | EC50 [16] [nM] | EC50 [17] [nM] | EC50 [18] [nM] | EC50 [19] [nM] | EC50 [20] [nM] | EC50 [21] [nM] | EC50 [22] [nM] | EC50 [23] [nM] | also measured
1 | COC[C@H]1C[C@@H](c2nc3ccc4cc5c(cc4c3[nH]2)OCc2cc(-c3cnc([C@@H]4CCCN4C(=O)[C@@H](NC(=O)OC)C(C)C)[nH]3)ccc2-5)N(C(=O)[C@@H](NC(=O)OC)C(C)C)C1 | 0.135 | 0.37 | 0.15 | 0.037 | 0.026 | 4.7 | 0.026 | 0.086 | 0.19 | 0.22 | 0.28 | 0.22 | 0.021 | 10 |  |  |  |  |  |  | EC50 [8]: 0.024 nM; EC50 [9]: 0.008 nM; EC50 [14]: 0.014 nM
2 | COC[C@H]1C[C@@H](c2nc(-c3ccc4c(c3)COc3cc5c(ccc6nc([C@@H]7CC[C@H](C)N7C(=O)[C@@H](NC(=O)OC)C(C)C)[nH]c65)cc3-4)c[nH]2)N(C(=O)[C@H](NC(=O)OC)c2ccccc2)C1 [GS-5816] | 0.006 | 0.22 | 0.032 | 0.014 | 0.016 | 8.5 | 0.016 | 0.011 | 0.105 | 0.031 | 0.016 | 0.053 | 0.014 | 0.25 | 0.006 | 0.005 | 0.007 | 3.2 | 0.054 | 0.009 | EC50 [24]: 0.013 nM; EC50 [25]: 0.004 nM; EC50 [26]: 0.009 nM; EC50 [27]: 0.003 nM; EC50 [28]: 0.13 nM; EC50 [29]: 0.21 nM; EC50 [30]: 0.011 nM; EC50 [31]: 0.016 nM; EC50 [32]: 0.01 nM; EC50 [33]: 0.01 nM; EC50 [34]: 0.008 nM; EC50 [35]: 0.004 nM
3 | COC(=O)N[C@H](C(=O)N1CC2(CC2)C[C@H]1c1nc(-c2ccc3c(c2)C(F)(F)c2cc(-c4ccc5[nH]c([C@@H]6[C@H]7CC[C@H](C7)N6C(=O)[C@@H](NC(=O)OC)C(C)C)nc5c4)ccc2-3)c[nH]1)C(C)C [CHEBI:85089] | 530 | 17 | 5.7 | 0.031 | 0.004 | 52 | 0.004 | 7.2 | 1.9 | 20 |  | 50 | 0.031 | 169 | 1.1 | 164 | 211 | > 89 | 0.15 | 209 | EC50 [24]: > 45 nM; EC50 [25]: 168 nM; EC50 [26]: 0.39 nM; EC50 [27]: 123 nM; EC50 [28]: 264 nM; EC50 [29]: > 89 nM; EC50 [30]: 943 nM; EC50 [31]: 249 nM; EC50 [32]: 292 nM; EC50 [33]: 222 nM; EC50 [34]: 21 nM; EC50 [35]: 865 nM
